Like-named read-outs stand apart in the source and are kept apart here.
Tests used:
[1] = tested on: 3T3 L1 fibroblasts differentiated to adipocytes; assay: Glucose transport activity (14C-2-deoxy-D-glucose uptake); format: cell-based
Experimental: Glucose Transport Activity
3T3 L1 fibroblasts (ATCC) were grown in Dulbecco's modified Eagie's medium (DMEM) with 10% fetal bovine serum (FBS). The cells were plated at a density of 3×10^4 cells/well in 24-well plates. Two days after confluence was reached, the cells were treated for 3 days with […] isobutylmethylxanthine (IBMX), 1 μM dexamethasone, and 1.7 μM insulin. The cells were then transferred to DMEM with 10% fresh bovine serum with 1.7 μM insulin for 2 more days. The cells were maintained in DMEM with 10% FBS for an additional 4 days. Finally the cells were serum starved overnight in 0.1% bovine serum albumin (BSA) in DMEM prior to exposure to the test compounds.
The following day, the medium was replaced with 150 mM NaCl, 1.7 mM KCl, 0.9 mM CaCl2, K2HPO4 (pH 7.4) to which was added either the experimental compounds, or their vehicle (DMSO). Insulin or its vehicle (0.01% BSA) was diluted in the assay buffer (containing test compound or vehicle, respectively) to a final concentration of 5.6 nM. After incubation for 30 min at 37° C., 0.5 μCi/ml of ^14C-2-deoxy-D-glucose was added, and the incubation was continued for additional 30 min at 37° C. The cells were then washed 3 times with ice-cold PBS/20 mM glucose and lysed in 250 μl of lysis buffer (50 mM HEPES pH 7.6, 1% Triton X-100) for 30 min at room temperature. Radioactivity in the lysate was quantified by scintillation counting.
Once ^14C-2-deoxy-D-glucose is transported into the cell it is not released. Glucose transport is, therefore, proportional to the amount of radioactivity in the lysate. The concentration of compound necessary to produce an increase in glucose transport greater than the sum of the standard deviation of the vehicle control plus the largest standard deviation of a test sample (generally 150% of the vehicle control) was recorded as the EC (effective concentration) The results of the glucose transport activity assay are shown in Table 2,

[2] = biological target: T1, β-kinase domain of the human insulin receptor (CKD) (Homo sapiens, UniProt P06213); assay: 32P-cytoplasmic kinase domain (CKD) autophosphorylation assay; format: biochemical; conditions: 32P incorporated into CKD band, 10 minutes at room temperature, 50 μM ATP; test concentration not given
T1 construct: The complete β-kinase domain of the human insulin receptor (CKD); made in house
Experimental: ^32P-cytoplasmic Kinase Domain (CKD) Autophosphorylation Assay
The complete β-kinase domain of the human insulin receptor (CKD) was expressed in, and purified from, baculovirus. CKD (4.0 μg/ml), in a solution of 29 mM HEPES (pH 7.6), 0.05% Triton X-100, 10 mM MgCl2, 2 mM MnCl2 (50 μl final volume), was combined with 50 μM ATP, and 5 μCi ^32P-ATP (3000 Ci/mmol.). A test compound, or the vehicle (DMSO), was added to a final DMSO concentration of 1%. The mixture was incubated for 10 minutes at room temperature. The reaction was terminated by the addition of 10 μl of 200 mM EDTA. A 30 μl volume was removed, mixed with 5 μl of 6× Laemmeli sodium dodecyl sulfate (SDS) treatment buffer, and heated to 95° C. for 5 minutes. A 20 μl aliquot was then run on an SDS-PAGE gel. The radioactivity incorporated into the CKD band is quantified by phosphorimaging of the gel, or scintillation counting of the excised bands.
The potency of a compound for increasing phosphorylation is expressed as a percentage of the vehicle level.

[3] = concentration producing increase in glucose transport generally 150% of the vehicle control, insulin 5.6 nM, read-out: Glucose Transport EC (effective concentration)
[4] = Mus musculus, 3T3-L1, concentration producing increase in glucose transport generally 150% of the vehicle control, insulin 5.6 nM, read-out: Glucose Transport EC (effective concentration)
[5] = Mus musculus, 3T3-L1, no EC recorded, not tested above 3.2 μM, insulin 5.6 nM, read-out: Glucose Transport EC (effective concentration), cells printed NT

T1 sequence (P06213 980-1382 limits assumed): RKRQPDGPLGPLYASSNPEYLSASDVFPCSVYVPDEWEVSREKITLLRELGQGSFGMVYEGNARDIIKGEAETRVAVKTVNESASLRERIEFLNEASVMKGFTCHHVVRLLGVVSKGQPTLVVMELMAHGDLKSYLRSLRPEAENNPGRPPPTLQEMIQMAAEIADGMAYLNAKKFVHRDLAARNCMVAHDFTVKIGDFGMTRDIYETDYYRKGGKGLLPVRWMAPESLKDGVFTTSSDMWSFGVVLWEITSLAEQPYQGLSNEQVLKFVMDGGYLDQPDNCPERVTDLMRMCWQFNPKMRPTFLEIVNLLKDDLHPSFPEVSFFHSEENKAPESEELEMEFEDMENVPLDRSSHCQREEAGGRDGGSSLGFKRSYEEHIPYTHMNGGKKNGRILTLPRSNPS

Molecule	CKD phosphorylation (percentage of the vehicle level) [2]	EC50 [1, 3]	EC50 [1, 4]	other results
3,5-bis[N-(6-sulfonaphthyl)carbamoyl] benzoic acid [Compound 5]	115.6%	10 µM		
O=C(O)c1ccc(NC(=O)c2cc(C(=O)Nc3ccc(C(=O)O)cc3)cc(C(=O)Nc3ccc(C(=O)O)cc3)c2)cc1 [Compound 1, 4-({3,5-bis[N-(4-carboxyphenyl)carbamoyl]phenyl}carbonylamino)benzoic acid]	103.7%		3.2 µM	
O=C(Nc1cccc2ccc(S(=O)(=O)[O-])cc12)c1cc(C(=O)Nc2cccc3ccc(S(=O)(=O)[O-])cc23)cc(C(=O)Nc2cccc3ccc(S(=O)(=O)[O-])cc23)c1.[Na+].[Na+].[Na+] [Compound 4, 8-({3,5-bis[N-(7-sulfonaphthyl)carbamoyl]phenyl}carbonylamino)naphthalene-2-sulfonic acid]	134.9%			EC50 ([1]; Mus musculus, 3T3-L1, read-out: Glucose Transport EC (effective concentration)): 3.2 µM
O=C(Nc1ccc2cc(S(=O)(=O)O)ccc2c1)c1cc(C(=O)Nc2ccc3cc(S(=O)(=O)O)ccc3c2)cc(C(=O)Nc2ccc3cc(S(=O)(=O)O)ccc3c2)c1 [Compound 11, 6-({3,5-bis[N-(6-sulfo(2-naphthyl))carbamoyl]phenyl}carbonylamino)naphthalene-2-sulfonic acid]	148.2%			EC50 [1, 5]: > 3.2 µM
COC(=O)c1cc(NC(=O)c2cc(C(=O)Nc3cc(C(=O)OC)cc(C(=O)OC)c3)cc(C(=O)Nc3cc(C(=O)OC)cc(C(=O)OC)c3)c2)cc(C(=O)OC)c1 [Compound 16, methyl 3-[(3,5-bis{N-[3,5-bis(methoxycarbonyl)phenyl]carbamoyl}phenyl)-carbonylamino]-5-(methoxycarbonyl)benzoate]	83.7%		1.6 µM	
O=C(O)c1ccc(CNC(=O)c2cc(C(=O)NCc3ccc(C(=O)O)cc3)cc(C(=O)NCc3ccc(C(=O)O)cc3)c2)cc1 [Compound 17, 4-{[(3,5-bis{N-[(4-carboxyphenyl)methyl]carbamoyl}phenyl)carbonylamino]-methyl}benzoic acid]	90.4%		3.2 µM	
COC(=O)c1cccc(NC(=O)c2cc(C(=O)Nc3cccc(C(=O)OC)c3)cc(C(=O)Nc3cccc(C(=O)OC)c3)c2)c1 [Compound 18, methyl 3-[(3,5-bis{N-[3-(methoxycarbonyl)phenyl]carbamoyl}phenyl)carbonyl-amino]benzoate]	94.54%		3.2 µM	
COC(=O)c1ccc(CNC(=O)c2cc(C(=O)NCc3ccc(C(=O)OC)cc3)cc(C(=O)NCc3ccc(C(=O)OC)cc3)c2)cc1 [Compound 19, methyl 4-({[3,5-bis(N-{[4-(methoxycarbonyl)phenyl]methyl}carbamoyl)phenyl]-carbonylamino}methyl)benzoate]	104.0%			EC50 [1, 5]: > 3.2 µM
COC(=O)c1ccc(NC(=O)c2cc(C(=O)Nc3ccc(C(=O)OC)cc3)cc(C(=O)Nc3ccc(C(=O)OC)cc3)c2)cc1 [Compound 20, methyl 4-[(3,5-bis{N-[4-(methoxycarbonyl)phenyl]carbamoyl}phenyl)carbonyl-amino]benzoate]	77.4%		3.2 µM	

More lines, main results first:

CKD phosphorylation (percentage of the vehicle level) [2]	Molecule	EC50 [1, 3]	EC50 [1, 4]	other results
136.8%	O=C(Nc1cccc2cc(S(=O)(=O)O)ccc12)c1cc(C(=O)Nc2cccc3cc(S(=O)(=O)O)ccc23)cc(C(=O)Nc2cccc3cc(S(=O)(=O)O)ccc23)c1 [Compound 2, 5-({3,5-bis[N-(6-sulfonaphthyl)carbamoyl]phenyl}carbonylamino)naphthalene-2-sulfonic acid]	3.2 µM		
98.9%	O=C(Nc1ccc(S(=O)(=O)O)cc1)c1cc(C(=O)Nc2ccc(S(=O)(=O)O)cc2)cc(C(=O)Nc2ccc(S(=O)(=O)O)cc2)c1 [Compound 3, 4-({3,5-bis[N-(4-sulfophenyl)carbamoyl]phenyl}carbonylamino)benzenesulfonic acid]		3.2 µM	
122.7%	O=C(Nc1cccc2c(S(=O)(=O)O)cccc12)c1cc(C(=O)Nc2cccc3c(S(=O)(=O)O)cccc23)cc(C(=O)Nc2cccc3c(S(=O)(=O)O)cccc23)c1 [Compound 6, 5-({3,5-bis[N-(5-sulfonaphthyl)carbamoyl]phenyl}carbonylamino)naphthalene-sulfonic acid]	3.2 µM		
114.1%	O=C(Nc1ccc(S(=O)(=O)O)c2ccccc12)c1cc(C(=O)Nc2ccc(S(=O)(=O)O)c3ccccc23)cc(C(=O)Nc2ccc(S(=O)(=O)O)c3ccccc23)c1 [Compound 7, 4-({3,5-bis[N-(4-sulfonaphthyl)carbamoyl]pheny}carbonylamino)naphthalene-sulfonic acid]	3.2 µM		
113.2%	O=C(Nc1ccccc1S(=O)(=O)O)c1cc(C(=O)Nc2ccccc2S(=O)(=O)O)cc(C(=O)Nc2ccccc2S(=O)(=O)O)c1 [Compound 8, 2-({3,5-bis[N-(2-sulfophenyl)carbamoyl]phenyl}carbonylamino)benzenesulfonic acid]		3.2 µM	
98.8%	O=C(Nc1ccc2ccccc2c1S(=O)(=O)O)c1cc(C(=O)Nc2ccc3ccccc3c2S(=O)(=O)O)cc(C(=O)Nc2ccc3ccccc3c2S(=O)(=O)O)c1 [Compound 9, 2-({3,5-bis[N-(1-sulfo(2-naphthyl))carbamoyl]phenyl}carbonylamino)naphthalene-sulfonic acid]			EC50 ([1]; no EC recorded, not tested above 3.2 μM, insulin 5.6 nM, read-out: Glucose Transport EC (effective concentration), cells printed NT): > 3.2 µM
92.0%	O=C(Nc1cccc(S(=O)(=O)O)c1)c1cc(C(=O)Nc2cccc(S(=O)(=O)O)c2)cc(C(=O)Nc2cccc(S(=O)(=O)O)c2)c1 [Compound 10, 3-({3,5-bis[N-(3-sulfophenyl)carbamoyl]phenyl}carbonylamino)benzenesulfonic acid]		3.2 µM	
136.6%	O=C(Nc1ccc2c(S(=O)(=O)O)cccc2c1)c1cc(C(=O)Nc2ccc3c(S(=O)(=O)O)cccc3c2)cc(C(=O)Nc2ccc3c(S(=O)(=O)O)cccc3c2)c1 [Compound 12, 6-({3,5-bis[N-(5-sulfo(2-naphthyl))carbamoyl]phenyl}carbonylamino)naphthalene-sulfonic acid]	3.2 µM		
125.5%	O=C(Nc1ccc2ccc(S(=O)(=O)O)cc2c1)c1cc(C(=O)Nc2ccc3ccc(S(=O)(=O)O)cc3c2)cc(C(=O)Nc2ccc3ccc(S(=O)(=O)O)cc3c2)c1 [Compound 13, 7-({3,5-bis[N-(7-sulfo(2-naphthyl))carbamoyl]phenyl}carbonylamino)naphthalene-2-sulfonic acid]			EC50 [1, 5]: > 3.2 µM
105.3%	O=C(Nc1ccccc1C(=O)O)c1cc(C(=O)Nc2ccccc2C(=O)O)cc(C(=O)Nc2ccccc2C(=O)O)c1 [Compound 14, 2-({3,5-bis[N-(2-carboxyphenyl)carbamoyl]phenyl}carbonylamino)benzoic acid]			EC50 [1, 5]: > 3.2 µM
156.0%	O=C(Nc1cccc2cccc(S(=O)(=O)O)c12)c1cc(C(=O)Nc2cccc3cccc(S(=O)(=O)O)c23)cc(C(=O)Nc2cccc3cccc(S(=O)(=O)O)c23)c1 [Compound 15, 8-({3,5-bis[N-(8-sulfonaphthyl)carbamoyl]phenyl}carbonylamino)naphthalene-sulfonic acid]	3.2 µM		

Reference: patent US6600069B2, “Benzene tricarboxylic acid derivatives as insulin receptor activators” (Telik, Inc., priority 2000, dated 2003)
